System: single cells from the ventral hippocampus (vHipp)
Assay: Single-cell RNA sequencing (scRNA-seq) of the ventral hippocampus after ketamine treatment; differential expression per cell type
[1] = Microglia, ketamine 10 mg/kg i.p. vs saline
[2] = OPCs, ketamine 10 mg/kg i.p. vs saline
[3] = Oligodendrocytes, ketamine 10 mg/kg i.p.
[4] = Oligodendrocytes, ketamine 10 mg/kg i.p. vs saline
[5] = Vascular Cells, ketamine 10 mg/kg i.p. vs saline

## CNC1(c2ccccc2Cl)CCCCC1=O (racemic) [ketamine, (R,S)-ketamine]
Lsm8, Glut Neurons
  Mean-Ket: 1.062
  logFC: −0.125
Map1lc3b, Glut Neurons
  Change: Down
  Mean-Ket: 1.349
  logFC: −0.132
Map4, Glut Neurons
  Change: Down
  Mean-Ket: 2.794
  logFC: −0.101
Matr3, Glut Neurons
  Change: Down
  Mean-Ket: 1.685
  logFC: −0.160
Microglia, ketamine 10 mg/kg i.p.
  Eef1akmt3 Mean-Ket: 1.718
[1]
  Eef1akmt3 Change: Up
  Eef1akmt3 logFC: 0.394
Mmachc, Glut Neurons
  Change: Down
  Mean-Ket: 2.750
  logFC: −0.102
Mrpl48, Glut Neurons
  Change: Up
  Mean-Ket: 1.060
  logFC: 0.180
Mtg2, Glut Neurons
  Change: Down
  Mean-Ket: 2.635
  logFC: −0.091
Ndufc1, Glut Neurons
  Change: Down
  Mean-Ket: 1.039
  logFC: −0.150
Nedd4, Glut Neurons
  Change: Down
  Mean-Ket: 1.358
  logFC: −0.161
Nop58, Glut Neurons
  Change: Down
  Mean-Ket: 2.645
  logFC: −0.096
Nvl, Glut Neurons
  Change: Up
  Mean-Ket: 1.070
  logFC: 0.148
OPCs
  genes differentially expressed exclusively in one cell type: 3
OPCs, ketamine 10 mg/kg i.p.
  Akap5 Mean-Ket: 3.963
  Eef1akmt3 Mean-Ket: 1.870
  Ilf2 Mean-Ket: 1.310
  Lrrc17 Mean-Ket: 3.227
  Mfsd4a Mean-Ket: 0.916
  Saa3 Mean-Ket: 1.654
  Tmem181b-ps Mean-Ket: 0.055
  Tmem1311 Mean-Ket: 0.804
  Tmprss11a Mean-Ket: 0.015
[2]
  Akap5 Change: Down
  Akap5 logFC: −0.320
  Eef1akmt3 Change: Up
  Eef1akmt3 logFC: 0.527
  Ilf2 Change: Up
  Ilf2 logFC: 0.398
  Lrrc17 Change: Down
  Lrrc17 logFC: −0.286
  Mfsd4a Change: Up
  Mfsd4a logFC: 0.460
  Saa3 Change: Up
  Saa3 logFC: 0.404
  Tmem181b-ps Change: Down
  Tmem181b-ps logFC: −0.195
  Tmem1311 Change: Up
  Tmem1311 logFC: 0.585
  Tmprss11a Change: Down
  Tmprss11a logFC: −0.121
Oaz1, Glut Neurons
  Change: Down
  Mean-Ket: 1.200
  logFC: −0.205
[3]
  Akap5 Mean-Ket: 3.517
  Eef1akmt3 Mean-Ket: 2.089
  Gsn Mean-Ket: 1.005
  Ilf2 Mean-Ket: 1.493
  Jpt2 Mean-Ket: 1.507
  Lrrc17 Mean-Ket: 2.805
  Map3k20 Mean-Ket: 2.351
  Mfsd4a Mean-Ket: 1.058
  Mmachc Mean-Ket: 3.286
  Pias4 Mean-Ket: 1.649
  Ppp1r7 Mean-Ket: 1.026
  Psmb11 Mean-Ket: 1.161
  Saa3 Mean-Ket: 1.909
  Sec14l1 Mean-Ket: 1.281
  Slc10a7 Mean-Ket: 1.538
  Snhg11 Mean-Ket: 2.917
  Supt7l Mean-Ket: 2.509
  Them4 Mean-Ket: 1.517
  Tulp1 Mean-Ket: 1.893
  Upf3b Mean-Ket: 3.197
  Vps8 Mean-Ket: 1.703
  Xcr1 Mean-Ket: 1.078
  Zfp229 Mean-Ket: 1.093
  Zfp827 Mean-Ket: 1.284
[4]
  Akap5 Change: Down
  Akap5 logFC: −0.393
  Eef1akmt3 Change: Up
  Eef1akmt3 logFC: 0.601
  Gsn Change: Up
  Gsn logFC: 0.254
  Ilf2 Change: Up
  Ilf2 logFC: 0.463
  Jpt2 Change: Up
  Jpt2 logFC: 0.265
  Lrrc17 Change: Down
  Lrrc17 logFC: −0.365
  Map3k20 Change: Up
  Map3k20 logFC: 0.245
  Mfsd4a Change: Up
  Mfsd4a logFC: 0.642
  Mmachc Change: Up
  Mmachc logFC: 0.154
  Pias4 Change: Up
  Pias4 logFC: 0.209
  Ppp1r7 Change: Up
  Ppp1r7 logFC: 0.231
  Psmb11 Change: Up
  Psmb11 logFC: 0.191
  Saa3 Change: Up
  Saa3 logFC: 0.574
  Sec14l1 Change: Up
  Sec14l1 logFC: 0.238
  Slc10a7 Change: Up
  Slc10a7 logFC: 0.192
  Snhg11 Change: Up
  Snhg11 logFC: 0.164
  Supt7l Change: Up
  Supt7l logFC: 0.169
  Them4 Change: Up
  Them4 logFC: 0.233
  Tulp1 Change: Up
  Tulp1 logFC: 0.207
  Upf3b Change: Up
  Upf3b logFC: 0.166
  Vps8 Change: Down
  Vps8 logFC: −0.217
  Xcr1 Change: Up
  Xcr1 logFC: 0.197
  Zfp229 Change: Up
  Zfp229 logFC: 0.199
  Zfp827 Change: Up
  Zfp827 logFC: 0.208
P3h3, Glut Neurons
  Change: Down
  Mean-Ket: 2.278
  logFC: −0.111
Pan3, Astrocytes
  Change: Down
  Mean-Ket: 1.194
  logFC: −0.179
Pbld1, Glut Neurons
  Change: Down
  Mean-Ket: 3.387
  logFC: −0.106
Poldip2, Astrocytes
  Change: Down
  Mean-Ket: 1.255
  logFC: −0.142
Polr2c, Glut Neurons
  Change: Down
  Mean-Ket: 2.412
  logFC: −0.101
Ppan, Glut Neurons
  Change: Down
  Mean-Ket: 2.680
  logFC: −0.102
Ppp1r16b, Astrocytes
  Change: Down
  Mean-Ket: 2.539
  logFC: −0.227
Rhpn2, Glut Neurons
  Change: Down
  Mean-Ket: 1.601
  logFC: −0.114
Rpl6, Glut Neurons
  Change: Down
  Mean-Ket: 0.808
  logFC: −0.190
Rpl41, Glut Neurons
  Change: Down
  Mean-Ket: 2.239
  logFC: −0.192
Rps29, Glut Neurons
  Change: Down
  Mean-Ket: 0.978
  logFC: −0.136
Rtn1, Glut Neurons
  Change: Down
  Mean-Ket: 1.210
  logFC: −0.185
Saa3, Astrocytes
  Change: Up
  Mean-Ket: 1.697
  logFC: 0.254
Saa3, Glut Neurons
  Change: Up
  Mean-Ket: 1.494
  logFC: 0.193
Sec23b, Glut Neurons
  Change: Down
  Mean-Ket: 2.447
  logFC: −0.109
Sec23ip, Glut Neurons
  Change: Down
  Mean-Ket: 2.674
  logFC: −0.107
Slc23a1, Glut Neurons
  Change: Down
  Mean-Ket: 2.215
  logFC: −0.114
Slc25a4, Glut Neurons
  Change: Down
  Mean-Ket: 0.872
  logFC: −0.125
Snca, Glut Neurons
  Change: Down
  Mean-Ket: 0.835
  logFC: −0.147
Swt1, Glut Neurons
  Change: Down
  Mean-Ket: 2.617
  logFC: −0.085
Synb, Glut Neurons
  Change: Down
  Mean-Ket: 1.730
  logFC: −0.118
Syne1, Astrocytes
  Change: Up
  Mean-Ket: 1.068
  logFC: 0.128
Timeless, Glut Neurons
  Change: Down
  Mean-Ket: 2.582
  logFC: −0.106
Tmsb4x, Glut Neurons
  Change: Down
  Mean-Ket: 1.829
  logFC: −0.167
Tpd52, Astrocytes
  Change: Down
  Mean-Ket: 1.199
  logFC: −0.145
Trpc4ap, Glut Neurons
  Change: Down
  Mean-Ket: 1.729
  logFC: −0.115
Tuba1a, Astrocytes
  Change: Down
  Mean-Ket: 1.483
  logFC: −0.162
Ube2k, Glut Neurons
  Change: Down
  Mean-Ket: 2.844
  logFC: −0.099
Unc13d, Astrocytes
  Change: Down
  Mean-Ket: 1.469
  logFC: −0.146
Usp34, Glut Neurons
  Change: Down
  Mean-Ket: 2.142
  logFC: −0.099
Vascular Cells, ketamine 10 mg/kg i.p.
  Flna Mean-Ket: 2.309
[5]
  Flna Change: Up
  Flna logFC: 2.044
Washc4, Glut Neurons
  Change: Down
  Mean-Ket: 2.856
  logFC: −0.092
Wdr12, Glut Neurons
  Change: Down
  Mean-Ket: 2.770
  logFC: −0.102
Yae1d1, Glut Neurons
  Change: Down
  Mean-Ket: 1.738
  logFC: −0.143
Ythdc1, Astrocytes
  Change: Down
  Mean-Ket: 1.822
  logFC: −0.144
Zcchc4, Glut Neurons
  Change: Down
  Mean-Ket: 0.973
  logFC: −0.113
Zfp113, Glut Neurons
  Change: Down
  Mean-Ket: 2.767
  logFC: −0.090
Zfp369, Glut Neurons
  Change: Up
  Mean-Ket: 1.005
  logFC: 0.207
astrocytes
  genes differentially expressed exclusively in one cell type: 27
Endothelial cells
  genes differentially expressed exclusively in one cell type: 1
Glutamatergic neurons
  genes differentially expressed exclusively in one cell type: 135
Glutamatergic neurons, all DEGs
  DEGs in glutamatergic neurons: 165
In 7 of the 13 clusters, ketamine 10 mg/kg vs saline
  total differentially expressed genes (DEGs): 263
Ketamine 10 mg/kg BW i.p., 2 days post-injection
  relative cell type composition for each cluster, ketamine vs saline: no significant differences
mt-Atp6, Astrocytes
  Change: Up
  Mean-Ket: 2.236
  logFC: 0.106
mt-Cytb, Astrocytes
  Change: Up
  Mean-Ket: 2.746
  logFC: 0.093
mt-Nd2, Astrocytes
  Change: Up
  Mean-Ket: 1.340
  logFC: 0.132
mt-Nd4, Astrocytes
  Change: Up
  Mean-Ket: 2.165
  logFC: 0.125
oligodendrocytes
  genes differentially expressed exclusively in one cell type: 16
Vascular cells
  genes differentially expressed exclusively in one cell type: 1
